Where two headings read alike, the source gives them in different places.
Tests used:
[1] = test system: beta amyloid production; experiment: Repressor Release Assay (RRA); format: cell-based; conditions: for fold induction at 20 µg/mL / fold induction at 10 µg/mL: read-out: APPI Fold Increase; for APPI % of Example #98: relative to Example 98
Summary of the method: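 Read-out is luciferase luminescence (RLU) after 36-48 h duplicate compound exposure of transfected CHO-K1 cells. These cells carry transiently introduced APP-lacI and pRSVO-luc DNA. Diluent control was 25 mM Hepes/1% DMSO; toxicity recorded as binary score (1 non-toxic, 0 toxic).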

[2] = test system: CHO-K1 cells; experiment: Toxicity in RRA (loss of luciferase signal); conditions: toxicity = loss of signal (<0.75 fold increase)
Procedure: The beta amyloid inhibitory activity of the compounds of the present invention was determined using the Repressor Release Assay (RRA).
“Fold Increase” refers to the amount of luciferase activity (measured in relative light units) over diluent control. “SEM” refers to the standard error of the mean for fold increase.

[3] = Conc 20 μg/ml, luciferase activity (RLU) over diluent control
[4] = Conc 20 μg/ml, 1=non-toxic, 0=toxic
[5] = Conc 20 μg/ml, luciferase activity over diluent control
[6] = Conc 10 μg/ml, luciferase activity over diluent control

Compound	fold induction at 20 µg/mL [1, 5]	(%)APPI Toxicity ([2]; Conc 20 μg/ml)	fold induction at 10 µg/mL [1, 6]	(%)APPI Toxicity ([2]; Conc 10 μg/ml)	further results
CCCCCC[C@@H](CC)[C@@H](CO)NS(=O)(=O)c1ccc(Br)cc1 [Example 75, 4-bromo-N-[(1S,2R)-2-ethyl-1-(hydroxymethyl)octyl]benzenesulfonamide]					fold induction at 20 µg/mL [1, 3]: 4.8; (%)APPI Toxicity [2, 4]: 1 (1=non-toxic)
CC[C@H](C)[C@@H](CO)NS(=O)(=O)c1ccc(Cl)c2nnoc12 [Example 4, 4-chloro-N-[(1S,2S)-1-(hydroxymethyl)-2-methylbutyl]-1,2,3-benzoxadiazole-7-sulfonamide]	1.5	1 (1=non-toxic)			
CC[C@H](C)[C@@H](CO)NS(=O)(=O)c1ccc(F)cc1F [Example 9, 2,4-difluoro-N-[(1S,2S)-1-(hydroxymethyl)-2-methylbutyl]benzenesulfonamide]	1.8	1 (1=non-toxic)	2.2	1 (1=non-toxic)	
CCCCC(O)(CCCC)[C@@H](NS(=O)(=O)c1ccc(Br)cc1)[C@@H](C)CC [Example 213, 4-bromo-N-{(1S)-2-butyl-2-hydroxy-1-[(1S)-1-methylpropyl]hexyl}benzenesulfonamide]			3.03	1 (1=non-toxic)	
O=S(=O)(N[C@H](CO)Cc1ccccc1)c1ccc(Br)cc1 [Example 15, N-[(1S)-1-benzyl-2-hydroxyethyl]-4-bromobenzenesulfonamide]	1.5	1 (1=non-toxic)			
COc1ccc([C@@H](C)[C@@H](CO)NS(=O)(=O)c2ccc(Cl)cc2)cc1 [Example 49, 4-Chloro-N-[(1S,2R)-1-(hydroxymethyl)-2-(4-methoxyphenyl)propyl]benzenesulfonamide]	2.5	1 (1=non-toxic)			
C=C(C)C(O)(C(=C)C)[C@@H](NS(=O)(=O)c1ccc(F)cc1)[C@@H](C)CC [Example 243, 4-fluoro-N-{(1S)-2-hydroxy-2-isopropenyl-3-methyl-1-[(1S)-1-methylpropyl]-3-butenyl}benzenesulfonamide]			1.7	1 (1=non-toxic)	
CCCCCC[C@@H](C)[C@@H](CO)NS(=O)(=O)c1ccc(Br)cc1 [Example 72, 4-bromo-N-[(1S,2R)-1-(hydroxymethyl)-2-methyloctyl] benzenesulfonamide]					APPI Fold Increase [1, 3]: 3.2; APPI % of Example #98 ([1]; Conc 20 μg/ml): 76.4%; (%)APPI Toxicity [2, 4]: 1 (1=non-toxic)
C[C@@H](c1ccccc1)[C@@H](CO)NS(=O)(=O)c1ccc(Cl)cc1 [Example 63, 4-chloro-N-[(1S,2S)-1-(hydroxymethyl)-2-phenylpropyl]benzenesulfonamide]					fold induction at 20 µg/mL [1, 3]: 2; (%)APPI Toxicity [2, 4]: 1 (1=non-toxic)
C=CCCC(O)(CCC=C)[C@@H](NS(=O)(=O)c1ccccc1F)[C@@H](C)CC [Example 271, N-{(1S)-2-(3-butenyl)-2-hydroxy-1-[(1S)-1-methylpropyl]-5-hexenyl}-2-fluorobenzenesulfonamide]			1.82	1 (1=non-toxic)	
CC(C)C[C@H](CO)NS(=O)(=O)c1ccccc1F [Example 113, 2-fluoro-N-[(1R)-1-(hydroxymethyl)-3-methylbutyl]benzenesulfonamide]	1.6	1 (1=non-toxic)			
CCCCCCC(O)[C@@H](NS(=O)(=O)c1ccccc1F)[C@@H](C)CC (stereo partly drawn) [Example 203, 2-fluoro-N-{(1S)-2-hydroxy-1-[(1S)-1-methylpropyl]octyl}benzenesulfonamide]			3.47	1 (1=non-toxic)	
CC[C@H](C)[C@H](NS(=O)(=O)c1cccc(Cl)c1)C(O)c1ccc(Cl)cc1 (stereo partly drawn) [Example 196, 3-chloro-N-{(1S,2S)-1-[(4-chlorophenyl)(hydroxy)methyl]-2-methylbutyl}benzenesulfonamide]			1.78	1 (1=non-toxic)	
CC[C@H](C)[C@@H](CO)NS(=O)(=O)c1cc(Cl)c(Cl)cc1Cl [Example 25, 2,4,5-trichloro-N-[(1S,2S)-1-(hydroxymethyl)-2-methylbutyl]benzenesulfonamide]	1.8	1 (1=non-toxic)			
CCC[C@H](c1ccccc1)[C@@H](CO)NS(=O)(=O)c1ccc(Cl)cc1 [Example 59, 4-chloro-N-[(1S,2R)-1-(hydroxymethyl)-2-phenylpentyl]benzenesulfonamide]					fold induction at 20 µg/mL [1, 3]: 3.2; (%)APPI Toxicity [2, 4]: 1 (1=non-toxic)
CC[C@H](C)[C@H](NS(=O)(=O)c1cccc(Cl)c1)C(O)C1CCCC1 (stereo partly drawn) [Example 186, 3-chloro-N-{(1S,2S)-1-[cyclopentyl(hydroxy)methyl]-2-methylbutyl}benzenesulfonamide]			3.86	1 (1=non-toxic)	
CC[C@H](C)[C@H](NS(=O)(=O)c1ccc(F)cc1)C(C)(C)O [Example 235, 4-fluoro-N-[(1S,2S)-1-(1-hydroxy-1-methylethyl)-2-methylbutyl]benzenesulfonamide]			1.88	1 (1=non-toxic)	
CC[C@H](C)[C@H](NS(=O)(=O)c1ccc(Cl)cc1)C(O)C(C)(C)C (stereo partly drawn) [Example 172, 4-chloro-N-{(1S)-2-hydroxy-3,3-dimethyl-1-[(1S)-1-methylpropyl]butyl}benzenesulfonamide]			2.51	1 (1=non-toxic)	
C=CC(O)[C@@H](NS(=O)(=O)c1cccc(Cl)c1)[C@@H](C)CC (stereo partly drawn) [Example 193, 3-chloro-N-{(1 S)-2-hydroxy-1-[(1S)-1-methylpropyl]-3-butenyl}benzenesulfonamide]			1.78	1 (1=non-toxic)	
CCCC(CO)NS(=O)(=O)c1ccc(Br)cc1 (stereo not drawn) [Example 104, 4-bromo-N-[1-(hydroxymethyl)butyl]benzenesulfonamide]	1.5	1 (1=non-toxic)			
O=S(=O)(N[C@H](CO)Cc1ccccc1)c1ccccc1F [Example 118, N-[(1S)-1-benzyl-2-hydroxyethyl]-2-fluorobenzenesulfonamide]	1.6	1 (1=non-toxic)			
CC[C@H](C)[C@H](NS(=O)(=O)c1ccc(Cl)cc1)C(C)(C)O [Example 223, 4-chloro-N-[(1S,2S)-1-(1-hydroxy-1-methylethyl)-2-methylbutyl]benzenesulfonamide]			2.33	1 (1=non-toxic)	
CC[C@H](C)[C@H](NS(=O)(=O)c1cccc(Cl)c1)C(O)(c1ccc(Cl)cc1)c1ccc(Cl)cc1 [Example 256, N-{(1S,2S)-1-[bis(4-chlorophenyl)(hydroxy)methyl]-2-methylbutyl}-3-chloro benzenesulfonamide]				1 (1=non-toxic)	APPI Fold Increase [1, 6]: 1.5 fold; APPI % of Example #98 ([1]; Conc 10 μg/ml): 55.91%
CC[C@](C)(CO)NS(=O)(=O)c1ccc(Cl)cc1 [Example 97, 4-chloro-N-[(1R)-1-(hydroxymethyl)-1-methylpropyl]benzenesulfonamide]	1.5	1 (1=non-toxic)			
CC[C@H](C)[C@@H](CO)NS(=O)(=O)c1cc(F)c(Br)cc1F [Example 20, 4-Bromo-2,5-difluoro-N-[(1S,2S)-1-(hydroxymethyl)-2methylbutyl]benzenesulfonamide]	3.3	1 (1=non-toxic)			

From patent publication US7166622B2, “Substituted phenylsulfonamide inhibitors of beta amyloid production” (Wyeth, priority 2002, dated 2007)
